Consider 21 compounds from ChEMBL document CHEMBL1121754 (J Med Chem, 1981).

Usually logP stands for the decadic logarithm of the partition coefficient of the neutral form, usually between octanol and water.

Data set [1] in a line: Partition coefficient (logP). The class given is physicochemical. As to conditions: octanol/water.
For data set [2], the species on record is Oryctolagus cuniculus. Description: Hyperthermic potency in rabbit relative to DOM. The class given is functional.
The species named for data set [3] is Homo sapiens. Description: Human hallucinogenic activity relative to mescaline. It is filed as functional.
Data set [4] in a line: Equilibrium constant for DNB complex formation. Details: unit not given here.
The target of data set [5] is 5-hydroxytryptamine receptor 2B (Rattus norvegicus, UniProt P30994). Description: Affinity against 5-hydroxytryptamine 2B receptor in the isolated rat stomach fundus. The following applies: read-out: pA2 (converted). It is filed as tissue-based.
Chain of 5-hydroxytryptamine receptor 2B (P30994 whole entry): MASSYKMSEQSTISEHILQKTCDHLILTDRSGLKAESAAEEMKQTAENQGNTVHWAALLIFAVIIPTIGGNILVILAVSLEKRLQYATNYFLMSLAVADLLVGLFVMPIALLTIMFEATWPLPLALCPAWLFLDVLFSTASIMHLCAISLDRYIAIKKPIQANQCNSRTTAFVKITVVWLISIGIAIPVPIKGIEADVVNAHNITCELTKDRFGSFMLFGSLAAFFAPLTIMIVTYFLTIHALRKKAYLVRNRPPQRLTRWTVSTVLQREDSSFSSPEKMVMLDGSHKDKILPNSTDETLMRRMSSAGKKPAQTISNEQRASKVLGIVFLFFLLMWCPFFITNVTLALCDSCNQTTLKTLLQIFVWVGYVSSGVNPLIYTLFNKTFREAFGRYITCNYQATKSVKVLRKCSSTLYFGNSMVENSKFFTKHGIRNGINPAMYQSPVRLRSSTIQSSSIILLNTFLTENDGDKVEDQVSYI

Some results are limits rather than exact numbers.

`COc1cc(OC)c(CC(C)N)cc1Br` (stereo not drawn): the logP in data set [1] (read-out: logP) was 2.61. The Relative activity is listed as 2.3 in data set [2] and 4 in data set [3].

On to `COc1cc(OC)c(CC(C)N)c(OC)c1` (stereo not drawn), for which, in data set [1] (read-out: logP), the logP is 1.57. Moreover, the results for the Relative activity in data set [2] and in data set [3] were 3.1 and 10, respectively. This compound displayed a KDNB in data set [4] of 2.09. Moreover, the Kb in data set [5] is 0.525 µM.

`COc1cc(C)c(CC(C)N)cc1OC` (stereo not drawn): the logP in data set [1] (read-out: logP) was 1.66. In addition, in data set [2], the Relative activity came to 0.5. The Kb in data set [5] is 1.38 µM.

For the compound `COc1ccc(OC)c(CC(C)N)c1` (stereo not drawn), the logP in data set [1] is 1.72; in data set [1] (read-out: logP) it was 1.88.

`COc1cc(SC)c(OC)cc1CC(C)N` (stereo not drawn): the logP in data set [1] (read-out: logP) was determined as 2.17. The figures for the Relative activity in data set [2] and in data set [3] were 53.9 and 50, respectively.

As to `COc1cc(OC)c(CC(C)N)cc1C` (stereo not drawn), in data set [1] (read-out: logP), the logP was 2.31. This compound also had a Relative activity in data set [2] of 0.9. The Kb in data set [5] was 2.45 µM.

`COc1cc(OC)c(SC)cc1CC(C)N` (stereo not drawn): in data set [1] (read-out: logP), the logP stood at 2.22. For the same compound, the Relative activity in data set [2] came out at 2.8; in data set [3], 1. Also, the Kb in data set [5] is 1.7 µM.

For `COc1ccc(CC(C)N)cc1OC` (stereo not drawn), the results for the log partition coefficient (logP) in data set [1] and in data set [1] (read-out: logP) were 1.2 and 1, respectively. The Relative activity in data set [2] is recorded as <<0.3; in data set [3], under 1. In addition, the KDNB in data set [4] was 1.95. The Kb in data set [5] was 3.55 µM.

For the compound `COc1ccc(CC(C)N)c(OC)c1` (stereo not drawn), in data set [1] (read-out: logP), the logP is 1.75. The Relative activity in data set [2] is 2.5; in data set [3] it was 5. The compound also returned a KDNB in data set [4] of 1.32. Moreover, the Kb in data set [5] is 2.51 µM.

`COc1cccc(CC(C)N)c1` (stereo not drawn) had a KDNB in data set [4] of 0.96. In addition, the Kb in data set [5] is 1.2 µM.

With `COc1cc(CC(C)N)c(OC)cc1Br` (stereo not drawn) [BROLAMFETAMINE], the logP in data set [1] stood at 2.54; in data set [1] (read-out: logP), 2.58.

Regarding `CC(N)Cc1ccccc1` (stereo not drawn), the KDNB in data set [4] was 0.55.

Consider `CC(N)Cc1ccc2c(c1)OCO2` (stereo not drawn) [TENAMFETAMINE], for which, in data set [1] (read-out: logP), the logP stood at 1.63. The compound also yielded a KDNB in data set [4] of 0.68.

For `COc1ccc(CC(C)N)cc1` (stereo not drawn) [PARA-METHOXYAMPHETAMINE], the logP in data set [1] (read-out: logP) was 1.77. In data set [4], the KDNB stood at 1.02. In addition, in data set [5], the Kb was 6.92 µM. In addition, the Relative activity in data set [3] was 4.

In the case of `COc1cc(OC)c(OC)cc1CC(C)N` (stereo not drawn), the results for the logP in data set [1] and in data set [1] (read-out: logP) were 1.1 and 1.74, respectively. Also, the Relative activity in data set [2] is on record as 11.8; in data set [3], 17. In data set [4], this compound displayed a KDNB of 1.7. For the same compound, the Kb in data set [5] is 0.155 µM.

With `COc1cc(Br)c(CC(C)N)cc1OC` (stereo not drawn), the logP in data set [1] (read-out: logP) was determined as 1.96. In data set [2], this compound gave a Relative activity of 3.4. In addition, the Kb in data set [5] was 1.78 µM.

Turning to `COc1cc(CC(C)N)cc(OC)c1OC` (stereo not drawn), the logP in data set [1] (read-out: logP) is 1.48. Further, the Relative activity is listed as 3.6 in data set [2] and 2.2 in data set [3]. In data set [4], this compound displayed a KDNB of 3.14. Besides, the Kb in data set [5] was 2.51 µM.

As for `COc1ccc(CC(C)N)c(OC)c1OC` (stereo not drawn), in data set [1] (read-out: logP), the logP worked out at 1.36. The Relative activity in data set [2] is recorded as <<0.3; in data set [3], under 2. In data set [4], the KDNB was 1.7. Moreover, the Kb in data set [5] is 8.51 µM.

Turning to `COc1cccc(OC)c1CC(C)N` (stereo not drawn), the KDNB in data set [4] was found to be 1.49. For the same compound, in data set [5], the Kb was 8.13 µM.

Regarding `COc1cc(CC(C)N)c(OC)cc1C` (stereo not drawn) [DOM], the logP in data set [1] came out at 2.24; in data set [1] (read-out: logP) it was 2.08. Further, the Relative activity is recorded as 100 in data set [2] and 80 in data set [3]. For the same compound, in data set [5], the Kb is 0.0759 µM.

Regarding `COc1cc(CC(C)N)c(SC)cc1OC` (stereo not drawn), in data set [1] (read-out: logP), the logP amounted to 1.71. The compound further returned a Relative activity in data set [2] of 1.7.
